Results from article PMC7413254 (Nature Communications, 2020).
Like-named read-outs stand apart in the source and are kept apart here.

Assays:
PfCRT^Ecu1110 [1] = molecular target: T1, PfCRT^Ecu1110 (Plasmodium falciparum, UniProt Q9N623, A220S/I356L/K76T/N326D); experiment: [3H]CQ uptake into Xenopus oocytes, cis-inhibition by unlabelled solute; assay type: cell-based
Method in brief: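 Washed oocytes (ten per treatment) were exposed to label in pH 5.5 ND96 for 1.5 h at 27.5 °C. Buffer was then removed, cells rinsed in ice-cold ND96, lysed in SDS and counted.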

non-expressing oocytes = assay type: cell-based, Xenopus laevis; conditions: total [3H]CQ transport; for Uptake of [3H]CQ (% non-expressing oocyte control), trans-stimulation: non-expressing oocytes, normalised to the oocyte type control; for Uptake of [3H]CQ (% PfCRTDd2 control), trans-stimulation, non-expressing oocytes: mean ± SEM, SEM
Method in brief: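 Oocytes (ten per treatment, ≥4 independent frogs/days) were preloaded by injecting VF-6 in 25 nL ND96 at pH 5.0, 5.5, 6.0 or 7.0, or Na^+-free choline buffer, then uptake run 1.5 h, 27.5 °C, ND96 pH 5.5 by default. Internal concentrations assumed ~400 nL oocyte volume.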

PfCRT^3D7 = PfCRT^3D7 (Plasmodium falciparum, UniProt Q8IBZ9); experiment: cell-based; assay type: cell-based
Sequence of PfCRT^3D7 (Q8IBZ9 59-398): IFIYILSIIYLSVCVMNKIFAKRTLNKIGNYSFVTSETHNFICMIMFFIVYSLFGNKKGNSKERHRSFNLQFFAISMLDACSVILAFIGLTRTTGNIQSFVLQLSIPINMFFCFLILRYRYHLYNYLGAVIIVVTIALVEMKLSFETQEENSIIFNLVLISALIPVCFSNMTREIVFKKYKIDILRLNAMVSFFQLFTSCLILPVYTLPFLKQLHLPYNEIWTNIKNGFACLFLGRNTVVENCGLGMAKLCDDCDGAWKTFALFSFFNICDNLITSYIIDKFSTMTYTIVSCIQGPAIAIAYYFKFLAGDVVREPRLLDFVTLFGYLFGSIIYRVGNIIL
Method in brief: (§1)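 Transport measured in Xenopus oocytes expressing the transporters, 1.5 h at 27.5 °C in ND96 pH 5.5 unless noted. For trans-stimulation, VF-6 injected in 25 nL ND96 at pH 5.0–7.0 or Na^+-free (choline) buffer; intracellular levels based on ~400 nL oocyte volume. Ten oocytes per treatment, ≥4 experiments.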

PfCRT^Dd2 = PfCRT^Dd2 (Plasmodium falciparum, UniProt Q9N623, A220S/I356T/K76T/M74I/N326S/N75E/Q271E/R371I); experiment: cell-based; assay type: cell-based; conditions: […]; for activity at 45000 µM: [test solute]i = 45 mM (30 mM for some solutes due to solubility)
Sequence of PfCRT^Dd2 (Q9N623 whole entry A220S/I356T/K76T/M74I/N326S/N75E/Q271E/R371I): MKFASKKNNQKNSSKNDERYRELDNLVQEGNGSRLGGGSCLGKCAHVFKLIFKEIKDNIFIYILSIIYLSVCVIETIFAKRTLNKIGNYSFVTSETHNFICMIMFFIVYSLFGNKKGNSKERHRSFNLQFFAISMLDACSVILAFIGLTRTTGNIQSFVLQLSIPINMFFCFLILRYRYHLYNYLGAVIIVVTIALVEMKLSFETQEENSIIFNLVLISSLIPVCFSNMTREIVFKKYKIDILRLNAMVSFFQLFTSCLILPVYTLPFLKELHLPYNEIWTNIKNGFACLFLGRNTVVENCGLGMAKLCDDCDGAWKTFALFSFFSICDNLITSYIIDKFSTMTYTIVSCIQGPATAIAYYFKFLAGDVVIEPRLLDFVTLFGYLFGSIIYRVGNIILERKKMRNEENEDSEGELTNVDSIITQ
Method in brief: as §1

PfCRT^Ecu1110 [2] = molecular target: T1, PfCRT^Ecu1110; experiment: cell-based; assay type: cell-based; conditions: […]
Method in brief: as §1

PfNT1 = molecular target: T2, PfNT1 (Plasmodium falciparum, UniProt Q8IDM6); experiment: cell-based; assay type: cell-based; conditions: for activity at 5000 µM: total [3H]CQ transport
T2 construct: expressed in transfected cells; host or cells: Xenopus laevis oocytes (stage V-VI), cRNA-injected
T2 sequence (Q8IDM6 whole entry): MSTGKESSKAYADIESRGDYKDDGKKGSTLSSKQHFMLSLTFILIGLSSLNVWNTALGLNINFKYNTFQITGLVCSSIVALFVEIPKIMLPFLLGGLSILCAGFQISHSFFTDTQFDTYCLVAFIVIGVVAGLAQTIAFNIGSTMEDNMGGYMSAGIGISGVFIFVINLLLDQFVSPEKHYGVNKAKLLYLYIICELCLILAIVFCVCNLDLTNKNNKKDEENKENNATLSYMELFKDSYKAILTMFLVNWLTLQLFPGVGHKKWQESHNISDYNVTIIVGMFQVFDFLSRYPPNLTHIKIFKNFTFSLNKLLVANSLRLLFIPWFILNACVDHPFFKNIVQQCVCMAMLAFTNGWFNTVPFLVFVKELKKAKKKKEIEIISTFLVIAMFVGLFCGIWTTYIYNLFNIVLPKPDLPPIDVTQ
Method in brief: as §1

PfCRT [3] = experiment: Influx of VF-6 via PfCRT into the oocyte, solutes tested as potential co-substrates; assay type: cell-based, Plasmodium falciparum; set-up: key: X: Compounds that have been tested as potential co-substrates but are not required for influx of VF-6 via PfCRT into the oocyte; conditions: X marks the solute
PfCRT [4] = experiment: Test of solutes as potential co-substrates for influx of VF-6 via PfCRT into the oocyte; assay type: cell-based, Plasmodium falciparum; set-up: key: X: Compounds that have been tested as potential co-substrates but are not required for influx of VF-6 via PfCRT into the oocyte; conditions: X = tested
[5] = read-out: [3H]CQ transport (% PfCRTEcu1110 control), cis-inhibition, PfCRTEcu1110, SEM

T1 sequence (Q9N623 whole entry A220S/I356L/K76T/N326D): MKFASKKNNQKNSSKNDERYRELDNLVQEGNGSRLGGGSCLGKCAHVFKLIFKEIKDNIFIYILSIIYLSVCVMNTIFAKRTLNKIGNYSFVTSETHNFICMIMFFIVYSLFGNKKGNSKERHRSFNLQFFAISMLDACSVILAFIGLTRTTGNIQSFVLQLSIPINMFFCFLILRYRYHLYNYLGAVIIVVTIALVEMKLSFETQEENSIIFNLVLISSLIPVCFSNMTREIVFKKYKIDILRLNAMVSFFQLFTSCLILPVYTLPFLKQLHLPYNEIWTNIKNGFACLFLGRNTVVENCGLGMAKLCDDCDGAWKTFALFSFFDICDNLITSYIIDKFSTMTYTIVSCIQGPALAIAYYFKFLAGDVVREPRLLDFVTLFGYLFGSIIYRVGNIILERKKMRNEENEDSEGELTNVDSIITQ

CC(C)C[C@H](N)C(=O)O [L-leucine]
inhibition at 2000 µM (PfCRT^Ecu1110 [1]; read-out: Uptake of [3H]CQ (% PfCRTEcu1110 control), cis-inhibition): 100 ± 3.2%
inhibition at 500 µM (PfCRT^Ecu1110 [1]; [5]): 30 ± 1.5%
inhibition at 1000 µM (PfCRT^Ecu1110 [1]; [5]): 29 ± 0.6%
inhibition at 2000 µM (PfCRT^Ecu1110 [1]; [5]): 30 ± 0.7%
Uptake of [3H]CQ (% non-expressing oocyte control), trans-stimulation (non-expressing oocytes; [test solute]i = 5 mM): 100 ± 3.2 % non-expressing oocyte control
Uptake of [3H]CQ (% non-expressing oocyte control), trans-stimulation (non-expressing oocytes; [test solute]i = 45 mM (30 mM for some solutes due to solubility)): 100 ± 3.3 % non-expressing oocyte control
Uptake of [3H]CQ (% PfCRTDd2 control), trans-stimulation, non-expressing oocytes (non-expressing oocytes; [test solute]i = 5 mM (intracellular)): 3.2 ± 0.08 % PfCRTDd2 control
Uptake of [3H]CQ (% PfCRTDd2 control), trans-stimulation, non-expressing oocytes (non-expressing oocytes; [test solute]i = 45 mM (intracellular; 30 mM for some solutes due to solubility)): 3.2 ± 0.05 % PfCRTDd2 control
activity at 5000 µM (PfCRT^3D7; PfCRT3D7 oocytes, [test solute]i = 5 mM, total [3H]CQ transport, normalised to the oocyte type control, read-out: Uptake of [3H]CQ (% PfCRT3D7 control), trans-stimulation): 100 ± 2.4%
[3H]CQ transport (% PfCRT3D7 control), trans-stimulation, PfCRT3D7 (PfCRT^3D7; SEM): 0.3 ± 0.02 % PfCRT3D7 control
activity at 5000 µM (PfCRT^3D7; [test solute]i = 5 mM (intracellular), PfCRT3D7 oocytes, normalised to oocyte type control, read-out: PfCRT-mediated [3H]CQ transport, trans-stimulation (% PfCRT3D7 control)): 98 ± 3.4%
activity at 45000 µM (PfCRT^3D7; SEM, read-out: Uptake of [3H]CQ (% PfCRTDd2 control), trans-stimulation, PfCRT3D7): 3.2 ± 0.04%
activity at 45000 µM (PfCRT^3D7; read-out: PfCRT-mediated [3H]CQ transport, trans-stimulation (% PfCRT3D7 control)): 95 ± 4.1%
activity at 45000 µM (PfCRT^3D7; read-out: Uptake of [3H]CQ (% PfCRT3D7 control), trans-stimulation): 97 ± 2.8%
activity at 5000 µM (PfCRT^3D7; total [3H]CQ transport, [test solute]i = 5 mM (intracellular), mean ± SEM, SEM, read-out: Uptake of [3H]CQ (% PfCRTDd2 control), trans-stimulation, PfCRT3D7): 3.3 ± 0.03%
activity at 5000 µM (PfCRT^Dd2; pH 5.5, read-out: PfCRT-mediated [3H]CQ transport, trans-stimulation (% PfCRTDd2 control), [test solute]i = 5 mM (intracellular), PfCRTDd2 oocytes, normalised to oocyte type control): 95 ± 3.4%
activity at 5000 µM (PfCRT^Dd2; pH 5.5, read-out: Uptake of [3H]CQ (% PfCRTDd2 control), trans-stimulation, PfCRTDd2, total [3H]CQ transport, [test solute]i = 5 mM (intracellular), mean ± SEM, SEM): 97 ± 0.7%
activity at 5000 µM (PfCRT^Dd2; pH 5.5, read-out: Uptake of [3H]CQ (% PfCRTDd2 control), trans-stimulation, PfCRTDd2 oocytes, [test solute]i = 5 mM, total [3H]CQ transport, normalised to the oocyte type control): 97 ± 0.7%
activity at 45000 µM (PfCRT^Dd2; pH 5.5, read-out: Uptake of [3H]CQ (% PfCRTDd2 control), trans-stimulation, PfCRTDd2 oocytes, total [3H]CQ transport, normalised to the oocyte type control): 98 ± 2.2%
activity at 5000 µM (PfCRT^Dd2; pH 5.5, read-out: [3H]CQ transport (% PfCRTDd2 control), trans-stimulation, PfCRTDd2, trans-stimulation, [test solute]i = 5 mM (injected), PfCRT-mediated component (background subtracted), mean ± SEM, SEM): 95 ± 3.4%
activity at 45000 µM (PfCRT^Dd2; pH 5.5, read-out: [3H]CQ transport (% PfCRTDd2 control), trans-stimulation, PfCRTDd2, trans-stimulation, PfCRT-mediated component (background subtracted), mean ± SEM, SEM): 96 ± 2.9%
activity at 5000 µM (PfCRT^Ecu1110 [2]; pH 5.5, read-out: PfCRT-mediated [3H]CQ transport, trans-stimulation (% PfCRTEcu1110 control), [test solute]i = 5 mM (intracellular), PfCRTEcu1110 oocytes, normalised to oocyte type control): 96 ± 2.6%
activity at 5000 µM (PfCRT^Ecu1110 [2]; pH 5.5, read-out: Uptake of [3H]CQ (% PfCRTEcu1110 control), trans-stimulation, PfCRTEcu1110 oocytes, [test solute]i = 5 mM, total [3H]CQ transport, normalised to the oocyte type control): 98 ± 3.2%
activity at 45000 µM (PfCRT^Ecu1110 [2]; pH 5.5, read-out: Uptake of [3H]CQ (% PfCRTEcu1110 control), trans-stimulation, PfCRTEcu1110 oocytes, [test solute]i = 45 mM (30 mM for some solutes due to solubility), total [3H]CQ transport, normalised to the oocyte type control): 100 ± 3.5%
activity at 5000 µM (PfCRT^Ecu1110 [2]; read-out: Uptake of [3H]CQ (% PfCRTDd2 control), trans-stimulation, PfCRTEcu1110, total [3H]CQ transport, [test solute]i = 5 mM (intracellular), mean ± SEM, SEM): 35 ± 1.3%
activity at 45000 µM (PfCRT^Ecu1110 [2]; read-out: Uptake of [3H]CQ (% PfCRTDd2 control), trans-stimulation, PfCRTEcu1110, total [3H]CQ transport, [test solute]i = 45 mM (intracellular; 30 mM for some solutes due to solubility), mean ± SEM, SEM): 36 ± 1.7%
activity at 5000 µM (PfNT1; PfNT1 oocytes, [test solute]i = 5 mM, normalised to the oocyte type control, read-out: Uptake of [3H]CQ (% PfNT1 control), trans-stimulation): 100 ± 3.8%
activity at 45000 µM (PfNT1; SEM, read-out: Uptake of [3H]CQ (% PfCRTDd2 control), trans-stimulation, PfNT1): 2.3 ± 0.09%
activity at 45000 µM (PfNT1; read-out: Uptake of [3H]CQ (% PfNT1 control), trans-stimulation): 98 ± 3.3%
activity at 5000 µM (PfNT1; [test solute]i = 5 mM (intracellular), mean ± SEM, SEM, read-out: Uptake of [3H]CQ (% PfCRTDd2 control), trans-stimulation, PfNT1): 3%
Compounds that have been tested as potential co-substrates but are not required for influx of VF-6 via PfCRT into the oocyte (PfCRT [3]): X
Tested as potential co-substrate but not required for influx of VF-6 via PfCRT into the oocyte (PfCRT [4]): X
